Source: patent US11560391B2, “Sulfonylurea compounds as inhibitors of interleukin-1 activity” (Genentech, Inc., priority 2018, dated 2023)
pIC50: −log10 of the molar value. Where two headings read alike, the source gives them in different places.

Molecular target: T1, NLRP3 inflammasome (Homo sapiens, UniProt Q96P20)
T1 construct: freshly isolated from human peripheral blood from healthy donors; StemCells Technologies; host or cells: primary human PBMCs
Assay: NLRP3 inflammasome activation assay in LPS-primed, nigericin-stimulated PBMCs, IL-1β release
Format: cell-based
Details: 10 μM nigericin; for IC50: LPS 100 ng/mL priming; for pIC50: PBMC, LPS priming, read-out: PMBC IL-1β IC50
Description: Some of the following assays were used to determine the inhibitory activity of the compounds on the NLRP3 inflammasome using a common inflammasome activation stimuli-nigericin.
Human peripheral blood mononuclear cells (PBMCs), consisting of lymphocytes (T, B and NK cells), monocytes and dendritic cells, are freshly isolated from human peripheral blood from healthy donors. Cells are obtained through an IRB approved donor program by iXCells Biotechnologies where all the donors are tested for bacterial and viral infections. Cells are purified from peripheral blood using ficoll gradient centrifugation.
Fresh or cryopreserved PMBCs are seeded in V-bottom 96-well plate at 0.5-1×10^5 cells per well and incubated overnight at 37° C. with 5% CO2 in RPMI 1640 medium with GlutaMAX supplement, 4.5 g/L D-glucose, 10% Fetal Bovine Serum (FBS), […] Sodium Pyruvate, 1% Penicillin/Streptomycin, 10 mM HEPES and 0.05 mM of […]. Freshly isolated or cryopreserved KCs cells are seeded in flat-bottom 96-well plates at 0.6-1.5×10^5 cells/well and incubated overnight at 37° C., 5% CO2 in RPMI 1640 Medium with GlutaMAX supplement, FBS, 1% Penicillin/Streptomycin and 10 mM HEPES. The following day, the cells are primed with 100 ng/mL of lipopolysaccharides (LPS; Sigma Aldrich) in FBS-free RPMI 1640 for 3 h. After the priming step, the media is removed and PBMCs are pre-incubated with serial concentrations of test compounds (0.00017-10 uM) or vehicle (DMSO) for 30 min in FBS-free media prior to addition of the NLRP3 activator. Cells are then stimulated with 10 μM Nigericin (Sigma Aldrich; InvivoGen) for 1.5 h. Plates were centrifuged at 1,500 rpm for 3 minutes to pellet cells and supernatant was transferred into new plates for subsequent experiments.
For ELISA assays cells are seeded into 96-well plates. Post study, supernatants are removed and the levels of mature IL-1β, IL18 and TNFα (Quantikine ELISA, R&D systems) are measured in cell conditioned media by ELISA according to manufacturer's instructions.
Human frozen PBMCs were purchased from StemCells Technologies. Cells were rapidly thawed in 37° C. water bath and resuspended in fresh assay media consisting of RPMI 1640 Medium containing 1% sodium pyruvate, 10 mM HEPES, 2.5 g/L glucose and 55 μM 2-Mercaptoethanol. Cell density was adjusted to 8.1×10^5 cells/mL. Cells were primed by adding lipopolysaccharide (Invivogen Ultrapure lipopolysaccharide from E. coli, tlrl-3pelps) at a final concentration of 100 ng/mL in cell suspension. 37 μL of cell suspension with LPS was seeded per well of a 384 well plate and incubated for 3 hours at 37° C. and 5% CO2. After priming, PBMCs were preincubated with serially diluted test compounds with starting concentration of 40 μM followed by 2-fold dilution for a 20-point curve or vehicle (DMSO) for 30 min in assay media at 37° C. and 5% CO2. Cells were then stimulated with 10 μM nigericin (Invivogen, tlrl-nig-5) for 90 min at 37° C. and 5% CO2 to activate NLRP3 dependent inflammasome pathway and IL-1β release in cell culture supernatant. Cells were centrifuged at 1200 RPM for 1 min and 40 μL of supernatant was transferred into fresh plates and stored at −80° C. until IL-1β analysis.
16 μL of supernatant was added to white 384 well HTRF plates, followed by addition of 4 μL of HTRF cocktail in each well. Plates were quickly centrifuged, sealed and incubated overnight at room temperature. Next day, HTRF signal was read on a Pherastar and ratio of 665/620 was calculated based on manufacturer's protocol to obtain concentration of IL-1β in cell culture supernatant.

[1] = read-out: IL-1B pIC50 (converted)

T1 sequence (Q96P20 whole entry): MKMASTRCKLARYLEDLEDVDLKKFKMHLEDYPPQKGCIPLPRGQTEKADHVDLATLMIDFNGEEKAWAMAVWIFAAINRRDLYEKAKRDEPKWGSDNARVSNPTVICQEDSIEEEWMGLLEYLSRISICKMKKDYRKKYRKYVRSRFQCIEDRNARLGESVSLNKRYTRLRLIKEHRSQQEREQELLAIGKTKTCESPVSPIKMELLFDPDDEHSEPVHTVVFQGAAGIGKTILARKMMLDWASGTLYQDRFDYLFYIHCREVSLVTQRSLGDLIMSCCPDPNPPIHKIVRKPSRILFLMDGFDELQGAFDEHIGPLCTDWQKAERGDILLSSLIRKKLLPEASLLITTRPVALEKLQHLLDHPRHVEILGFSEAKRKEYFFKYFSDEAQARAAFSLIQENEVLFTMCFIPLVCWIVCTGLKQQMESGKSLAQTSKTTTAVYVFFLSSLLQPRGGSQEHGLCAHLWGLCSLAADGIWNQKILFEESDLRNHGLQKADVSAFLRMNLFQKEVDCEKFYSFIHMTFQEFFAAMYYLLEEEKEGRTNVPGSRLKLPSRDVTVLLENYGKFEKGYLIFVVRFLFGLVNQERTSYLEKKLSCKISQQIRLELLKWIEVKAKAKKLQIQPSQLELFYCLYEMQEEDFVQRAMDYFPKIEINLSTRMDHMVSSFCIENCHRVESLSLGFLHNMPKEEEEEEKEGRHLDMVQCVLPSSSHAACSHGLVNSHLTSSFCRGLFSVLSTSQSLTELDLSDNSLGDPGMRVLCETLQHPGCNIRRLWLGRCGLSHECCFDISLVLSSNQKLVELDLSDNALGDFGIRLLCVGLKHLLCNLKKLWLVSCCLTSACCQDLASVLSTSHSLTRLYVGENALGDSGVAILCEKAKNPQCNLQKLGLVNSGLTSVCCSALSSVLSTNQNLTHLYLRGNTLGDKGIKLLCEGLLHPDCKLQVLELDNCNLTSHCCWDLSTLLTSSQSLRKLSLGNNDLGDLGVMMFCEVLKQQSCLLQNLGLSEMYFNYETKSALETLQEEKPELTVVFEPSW

Structure (SMILES) | IC50 [1] | pIC50 | further results
O=C(Nc1nc(-c2ccccc2)cc2c1CCC2)NS(=O)(=O)c1cnn2c1OCCC2 [drawing 388] | > 10 µM | – | –
O=C(NC1CCOc2ccccc21)NS(=O)(=O)c1cnn2c1OCCC2 (racemic) [Example 9, N-(chroman-4-ylcarbamoyl)-6,7-dihydro-5H-pyrazolo[5,1-b][1,3]oxazine-3-sulfonamide] | – | < 5.00 | –
O=C(NN1CC2CCCC2C1)NS(=O)(=O)c1cnn2c1OCCC2 (single isomer, unassigned) [Example 13a, N-((hexahydrocyclopenta[c]pyrrol-2(1H)-yl)carbamoyl)-6,7-dihydro-5H-pyrazolo[5,1-b][1,3]oxazine-3-sulfonamide] | – | < 5.00 | –
CC1Cc2ccccc2C1NC(=O)NS(=O)(=O)c1cnn2c1OCCC2 (stereo not drawn) [drawing 371] | > 10 µM | – | –
CC(C)c1nn(C)c(C(C)C)c1NC(=O)NS(=O)(=O)c1cnn2c1OCCC2 [Example 26, N-((3,5-diisopropyl-1-methyl-1H-pyrazol-4-yl)carbamoyl)-6,7-dihydro-5H-pyrazolo[5,1-b][1,3]oxazine-3-sulfonamide] | – | < 5.00 | –
O=C(Nc1c2c(n3c1CCC3)CCCC2=O)NS(=O)(=O)c1cnn2c1OCCC2 [Example 29, N-((8-oxo-2,3,5,6,7,8-hexahydro-1H-pyrrolo[1,2-a]indol-9-yl)carbamoyl)-6,7-dihydro-5H-pyrazolo[5,1-b][1,3]oxazine-3-sulfonamide] | – | < 5.00 | –
CC1CCCC(C)N1NC(=O)NS(=O)(=O)c1cnn2c1OCCC2 (stereo not drawn) | > 10 µM | – | –
O=C(NC1c2ccccc2CC12CCOCC2)NS(=O)(=O)c1cnn2c1OCCC2 (stereo not drawn) [Example 2, N-((1,2′,3,3′,5′,6′-hexahydrospiro[indene-2,4′-pyran]-1-yl)carbamoyl)-6,7-dihydro-5H-pyrazolo[5,1-b][1,3]oxazine-3-sulfonamide] | – | < 5.00 | –
CC1Cc2ccccc2C1NC(=O)NS(=O)(=O)c1cnn2c1OCCC2 (stereo not drawn) [Example 6, N-((2-methyl-2,3-dihydro-1H-inden-1-yl)carbamoyl)-6,7-dihydro-5H-pyrazolo[5,1-b][1,3]oxazine-3-sulfonamide] | – | < 5.00 | –
Cc1cc(NC(=O)NS(=O)(=O)c2cnn3c2OCCC3)n(C(C)C)n1 [drawing 410] | > 10 µM | – | –
O=C(NC1c2ccccc2CC12CCOCC2)NS(=O)(=O)c1cnn2c1OCCC2 (stereo not drawn) [drawing 367] | > 10 µM | – | –
CC1(C)CCc2ccccc2C1NC(=O)NS(=O)(=O)c1cnn2c1OCCC2 (stereo not drawn) [Example 1, N-((2,2-dimethyl-1,2,3,4-tetrahydronaphthalen-1-yl)carbamoyl)-6,7-dihydro-5H-pyrazolo[5,1-b][1,3]oxazine-3-sulfonamide] | – | < 5.00 | –
C=C(C)c1cncc(C(=C)C)c1NC(=O)NS(=O)(=O)c1cnn2c1OCCC2 [drawing 392] | > 10 µM | – | –
CC(C)(C)c1cc(C(C)(C)C)nc(NC(=O)NS(=O)(=O)c2cnn3c2OCCC3)n1 [drawing 387] | > 10 µM | – | –
O=C(NC(c1ccccc1)c1ccccc1)NS(=O)(=O)c1cnn2c1OCCC2 [drawing 380] | > 10 µM | – | –
CC1(C)CCc2ccccc2C1NC(=O)NS(=O)(=O)c1cnn2c1OCCC2 (stereo not drawn) [drawing 366] | > 10 µM | – | –
Cc1cc(C)nc(NC(=O)NS(=O)(=O)c2cnn3c2OCCC3)n1 [drawing 390] | > 10 µM | – | –
O=C(Nc1c(-c2ccccc2)nc2ccccn12)NS(=O)(=O)c1cnn2c1OCCC2 [Example 10, N-((2-phenylimidazo[1,2-a]pyridin-3-yl)carbamoyl)-6,7-dihydro-5H-pyrazolo[5,1-b][1,3]oxazine-3-sulfonamide] | – | < 5.00 | –
COc1cc(C)nc(NC(=O)NS(=O)(=O)c2cnn3c2OCCC3)n1 [drawing 384] | – | – | IC50 (IL-1B pIC50 (μM)): > 10 µM
O=C(Nc1c(-c2ccccc2)nc2ccccn12)NS(=O)(=O)c1cnn2c1OCCC2 [drawing 375] | > 10 µM | – | –
CC(C)(C)c1cc(NC(=O)NS(=O)(=O)c2cnn3c2OCCC3)n(C(C)(C)C)n1 [drawing 403] | > 10 µM | – | –
O=C(NN1CCCCCC1)NS(=O)(=O)c1cnn2c1OCCC2 [Example 14, N-(azepan-1-ylcarbamoyl)-6,7-dihydro-5H-pyrazolo[5,1-b][1,3]oxazine-3-sulfonamide] | – | < 5.00 | –
O=C(Nc1nc(Cl)cc(Cl)n1)NS(=O)(=O)c1cnn2c1OCCC2 [drawing 369] | > 10 µM | – | –
CC1(C)COc2c(S(=O)(=O)NC(=O)NC3CCCCc4ccccc43)cnn2C1 (stereo not drawn) [Example 46, 6,6-dimethyl-N-((6,7,8,9-tetrahydro-5H-benzo[7]annulen-5-yl)carbamoyl)-6,7-dihydro-5H-pyrazolo[5,1-b][1,3]oxazine-3-sulfonamide] | – | < 5.00 | –
O=C(NN1CCCCCC1)NS(=O)(=O)c1cnn2c1OCCC2 [drawing 379] | > 10 µM | – | –

Further lines, with some results ahead:

IC50 [1] | pIC50 | Structure (SMILES) | further results
– | < 5.00 | O=C(NC1c2ccccc2-c2ccccc21)NS(=O)(=O)c1cnn2c1OCCC2 [Example 5, N-((9H-fluoren-9-yl)carbamoyl)-6,7-dihydro-5H-pyrazolo[5,1-b][1,3]oxazine-3-sulfonamide] | –
> 10 µM | – | O=C(NN1CC2CCCC2C1)NS(=O)(=O)c1cnn2c1OCCC2 (stereo not drawn) | –
> 10 µM | – | CC(C)c1cc(Cl)nc(NC(=O)NS(=O)(=O)c2cnn3c2OCCC3)n1 [drawing 381] | –
> 10 µM | – | CC1(C)COc2c(S(=O)(=O)NC(=O)NC3CCCCc4ccccc43)cnn2C1 (stereo not drawn) [drawing 413] | –
> 10 µM | – | Cc1nc(NC(=O)NS(=O)(=O)c2cnn3c2OCCC3)nc2c1CCCC2 [drawing 389] | –
> 10 µM | – | O=C(NC1c2ccccc2-c2ccccc21)NS(=O)(=O)c1cnn2c1OCCC2 [drawing 370] | –
> 10 µM | – | O=C(NC1(c2ccccc2)CCCCCC1)NS(=O)(=O)c1cnn2c1OCCC2 [drawing 377] | –
– | < 5.00 | O=C(NC1(c2ccccc2)CCCCCC1)NS(=O)(=O)c1cnn2c1OCCC2 [Example 12, N-((1-phenylcycloheptyl)carbamoyl)-6,7-dihydro-5H-pyrazolo[5,1-b][1,3]oxazine-3-sulfonamide] | –
> 10 µM | – | O=C(NN1CCOc2ccccc21)NS(=O)(=O)c1cnn2c1OCCC2 | –
> 10 µM | – | Cc1cc(C2CC2)nc(NC(=O)NS(=O)(=O)c2cnn3c2OCCC3)n1 [drawing 386] | –
– | < 5.00 | C=C(C)c1cncc(C(=C)C)c1NC(=O)NS(=O)(=O)c1cnn2c1OCCC2 [Example 27, N-((3,5-di(prop-1-en-2-yl)pyridin-4-yl)carbamoyl)-6,7-dihydro-5H-pyrazolo[5,1-b][1,3]oxazine-3-sulfonamide] | –
> 10 µM | – | O=C(Nc1nc(-c2ccccc2)cc(C(F)(F)F)n1)NS(=O)(=O)c1cnn2c1OCCC2 [drawing 382] | –
> 10 µM | – | Cc1ccc(Br)c(NC(=O)NS(=O)(=O)c2cnn3c2OCCC3)n1 [drawing 385] | –
1 to 10 µM | – | CC(C)c1nn(C)c(C(C)C)c1NC(=O)NS(=O)(=O)c1cnn2c1OCCC2 [drawing 391] | –
– | < 5.00 | Cc1ccc(Br)c(NC(=O)NS(=O)(=O)c2cnn3c2OCCC3)n1 [Example 20, N-((3-bromo-6-methylpyridin-2-yl)carbamoyl)-6,7-dihydro-5H-pyrazolo[5,1-b][1,3]oxazine-3-sulfonamide] | –
– | < 5.00 | CC(C)(C)c1cc(NC(=O)NS(=O)(=O)c2cnn3c2OCCC3)n(C(C)(C)C)n1 [Example 36, N-((1,3-di-tert-butyl-1H-pyrazol-5-yl)carbamoyl)-6,7-dihydro-5H-pyrazolo[5,1-b][1,3]oxazine-3-sulfonamide, ammonia] | –
– | < 5.00 | O=C(NC(c1ccccc1)c1ccccc1)NS(=O)(=O)c1cnn2c1OCCC2 [Example 15, N-(benzhydrylcarbamoyl)-6,7-dihydro-5H-pyrazolo[5,1-b][1,3]oxazine-3-sulfonamide] | –
